This is an account of results in article PMC11467302, “Discovery of a potent, Kv7.3-selective potassium channel opener from a Polynesian traditional botanical anticonvulsant” (Communications Chemistry, 2024).

Assay type in all cases: cell-based
In one assay the target is T1, Kv7.3* (Homo sapiens, UniProt O43525, A315T).
T1 construct: gene KCNQ3; Kv7.3* homomer expressed in Xenopus oocytes
T1 sequence (O43525 1-872 A315T): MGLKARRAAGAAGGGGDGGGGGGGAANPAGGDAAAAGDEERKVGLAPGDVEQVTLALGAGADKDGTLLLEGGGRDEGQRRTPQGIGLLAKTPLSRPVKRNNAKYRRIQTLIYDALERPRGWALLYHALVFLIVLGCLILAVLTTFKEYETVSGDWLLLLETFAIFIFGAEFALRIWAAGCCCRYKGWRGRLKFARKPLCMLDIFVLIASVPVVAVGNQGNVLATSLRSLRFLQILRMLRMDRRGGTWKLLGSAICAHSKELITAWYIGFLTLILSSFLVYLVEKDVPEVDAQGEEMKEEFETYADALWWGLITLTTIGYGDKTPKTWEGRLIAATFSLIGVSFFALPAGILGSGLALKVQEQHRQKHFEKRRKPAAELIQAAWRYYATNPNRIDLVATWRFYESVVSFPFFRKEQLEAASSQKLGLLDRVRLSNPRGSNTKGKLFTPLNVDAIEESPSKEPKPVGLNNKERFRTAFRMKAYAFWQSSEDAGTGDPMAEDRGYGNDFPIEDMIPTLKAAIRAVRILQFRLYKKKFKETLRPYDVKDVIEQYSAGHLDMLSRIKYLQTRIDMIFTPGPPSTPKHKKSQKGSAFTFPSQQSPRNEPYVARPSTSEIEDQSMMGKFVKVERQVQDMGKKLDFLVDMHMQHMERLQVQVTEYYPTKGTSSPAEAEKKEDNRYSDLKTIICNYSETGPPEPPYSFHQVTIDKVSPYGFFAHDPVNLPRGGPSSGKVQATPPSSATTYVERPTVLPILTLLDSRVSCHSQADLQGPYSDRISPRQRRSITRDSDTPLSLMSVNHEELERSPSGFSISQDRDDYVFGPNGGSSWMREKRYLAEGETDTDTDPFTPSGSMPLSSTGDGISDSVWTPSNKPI
Briefly: two-electrode voltage clamp, shift of V0.5act, dose response.

Assay [1] concerns the target T2, Kv7.3 (Homo sapiens, UniProt O43525).
T2 construct: gene KCNQ3; Kv7.2/3 heteromer expressed in Xenopus oocytes; with Kv7.2 (KCNQ2)
The description is as above.

In assay [2] the target is T2, Kv7.3. Briefly: two-electrode voltage clamp at […], shift of V0.5act. For orientation: In two-electrode clamp one electrode senses voltage and the other passes current.

T2 sequence (O43525 whole entry): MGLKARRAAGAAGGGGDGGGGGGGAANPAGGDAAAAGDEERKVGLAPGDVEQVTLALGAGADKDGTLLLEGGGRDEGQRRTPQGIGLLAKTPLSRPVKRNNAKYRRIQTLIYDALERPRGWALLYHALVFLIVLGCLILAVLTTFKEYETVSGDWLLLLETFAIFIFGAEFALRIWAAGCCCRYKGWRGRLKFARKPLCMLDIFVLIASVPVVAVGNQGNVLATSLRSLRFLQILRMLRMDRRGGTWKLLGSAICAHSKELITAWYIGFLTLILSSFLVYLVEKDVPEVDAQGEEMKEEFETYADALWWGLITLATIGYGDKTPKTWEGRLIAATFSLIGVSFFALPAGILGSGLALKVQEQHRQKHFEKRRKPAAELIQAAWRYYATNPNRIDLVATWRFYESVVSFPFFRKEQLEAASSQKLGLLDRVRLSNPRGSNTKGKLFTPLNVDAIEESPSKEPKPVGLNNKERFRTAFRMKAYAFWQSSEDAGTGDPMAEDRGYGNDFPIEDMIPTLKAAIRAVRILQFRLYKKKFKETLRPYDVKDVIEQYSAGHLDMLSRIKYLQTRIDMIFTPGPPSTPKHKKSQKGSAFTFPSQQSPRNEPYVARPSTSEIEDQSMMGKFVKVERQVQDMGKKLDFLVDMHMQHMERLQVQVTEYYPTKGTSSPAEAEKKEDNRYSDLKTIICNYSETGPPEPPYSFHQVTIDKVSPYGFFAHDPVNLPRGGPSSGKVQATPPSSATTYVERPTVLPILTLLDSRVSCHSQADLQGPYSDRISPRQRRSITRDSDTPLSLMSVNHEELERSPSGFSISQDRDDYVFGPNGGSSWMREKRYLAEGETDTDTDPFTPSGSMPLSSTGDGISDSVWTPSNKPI
T2 sequence (O43526 whole entry partner): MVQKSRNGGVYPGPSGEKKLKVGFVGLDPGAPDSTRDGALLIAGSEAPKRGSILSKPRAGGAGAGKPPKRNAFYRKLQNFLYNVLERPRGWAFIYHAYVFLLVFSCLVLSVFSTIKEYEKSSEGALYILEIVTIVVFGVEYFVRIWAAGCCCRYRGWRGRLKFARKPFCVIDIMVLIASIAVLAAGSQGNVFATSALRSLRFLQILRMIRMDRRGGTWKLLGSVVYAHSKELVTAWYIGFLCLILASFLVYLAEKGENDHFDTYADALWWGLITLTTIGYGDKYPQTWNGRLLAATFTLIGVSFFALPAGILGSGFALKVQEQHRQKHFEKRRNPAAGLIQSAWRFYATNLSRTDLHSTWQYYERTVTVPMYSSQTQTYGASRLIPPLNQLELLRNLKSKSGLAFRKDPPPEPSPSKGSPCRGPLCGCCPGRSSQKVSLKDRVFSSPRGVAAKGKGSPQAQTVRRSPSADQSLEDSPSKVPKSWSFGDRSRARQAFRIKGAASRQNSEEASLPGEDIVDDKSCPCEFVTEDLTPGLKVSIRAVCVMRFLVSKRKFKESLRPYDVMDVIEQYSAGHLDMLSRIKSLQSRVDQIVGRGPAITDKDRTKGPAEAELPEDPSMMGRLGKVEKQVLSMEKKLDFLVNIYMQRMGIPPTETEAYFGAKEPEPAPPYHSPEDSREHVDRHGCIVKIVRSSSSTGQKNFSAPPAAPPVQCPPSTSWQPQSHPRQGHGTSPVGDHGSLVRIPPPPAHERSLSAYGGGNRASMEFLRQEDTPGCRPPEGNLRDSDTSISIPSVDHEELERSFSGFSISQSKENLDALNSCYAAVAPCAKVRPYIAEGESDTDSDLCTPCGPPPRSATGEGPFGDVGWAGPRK

Turning to `O=C(O)c1cc(O)ccc1O` [GA, gentisic acid], the concentration for a half-maximal effect (EC50) – broadly, the midpoint of the concentration-response curve – at Kv7.3* was 0.79 nM; at Kv7.3 [1], 2.8 nM.

For `O=S(=O)(O)c1cc(O)ccc1O` [calcium dobesilate], the “two-electrode voltage clamp at 100 μM, shift of V0.5act” value on Kv7.3 [2] was “one analog of GA did exhibit similar efficacy to that of GA—the sulfonic acid, calcium dobesilate”.
